# Test results reported in US20130266636A1, “METHODS FOR BLOCKING CELL PROLIFERATION AND TREATING DISEASES AND CONDITIONS RESPONSIVE TO CELL GROWTH INHIBITION” (THE REGENTS OF THE UNIVERSITY OF CALIFORNIA, priority 2010, published 2013).
# “Also recorded” adds a separate entry of the source.
# How the values were obtained:
# [1] = test system: human breast (MDA-MB-231) carcinoma cell line; assay: Cell viability assay in MDA-MB-231 cells; assay type: cell-based
# [2] = target: T1, CRAF (Homo sapiens, UniProt P04049); assay: Phospho-S338 CRAF immunoblot in XPA-1 cells; assay type: cell-based; design: total CRAF and total MEK of lysates from XPA-1 cells treated with PD0325901, Sorafenib, L-779450, PLX4720, KG5 or KG1; endogenous in cells; host or cells: XPA-1
# Protocol: (§1) FIGS. 6 and 7 illustrate immunoblot analysis of CRAF immunoprecipitated from XPA-1 cells treated with KG5 and KG38.
# FIG. 13 illustrates immunoblot analysis of phospho-5338 CRAF, phospho-MEK, total CRAF and total MEK of lysates from XPA-1 cells treated with PD0325901, Sorafenib, L-779450, PLX4720, KG5 or KG1.
# (§2) Immunoprecipitation and Immunoblot Analysis Cells were lysed in either NP40 lysis buffer (150 mM NaCl, 50 mM Tris Base pH 7.4, 1% NP40) or RIPA buffer (50 mM Tris pH 7.4, 100 mM NaCl, 0.1% SDS) supplemented with complete protease inhibitor mixture (Roche), 50 mM NaF and 1 mM Na3VO4 and centrifuged at 13,000×g for 10 min at 4° C. Protein concentration was determined by BCA assay. […] of protein were immunoprecipitated with […] of anti-Flag (Sigma), anti-CRAF (BD Pharmingen), anti-Plk1 (Abcam), anti-γ-Tubulin (sigma) or anti-cenpF (Santa Cruz) antibodies overnight at 4° C. followed by capture with 25 μl of protein A/G (Pierce). Beads were washed five times, eluted in boiling Laemmli buffer, resolved on 10% SDS-PAGE and immunoblotting was performed with anti-Plk1 antibody (Abcam), anti-CRAF antibody (BD Pharmingen), anti-Aurora A (Abcam), anti-phospho-S338 CRAF (Cell Signaling), anti-phospho-T210 Plk1 or anti-phospho-T288 Aurora A (Cell signaling) diluted 1:1000. For immunoblot analysis, […] of protein was boiled in […]
# Target sequence in this assay (P04049 whole entry): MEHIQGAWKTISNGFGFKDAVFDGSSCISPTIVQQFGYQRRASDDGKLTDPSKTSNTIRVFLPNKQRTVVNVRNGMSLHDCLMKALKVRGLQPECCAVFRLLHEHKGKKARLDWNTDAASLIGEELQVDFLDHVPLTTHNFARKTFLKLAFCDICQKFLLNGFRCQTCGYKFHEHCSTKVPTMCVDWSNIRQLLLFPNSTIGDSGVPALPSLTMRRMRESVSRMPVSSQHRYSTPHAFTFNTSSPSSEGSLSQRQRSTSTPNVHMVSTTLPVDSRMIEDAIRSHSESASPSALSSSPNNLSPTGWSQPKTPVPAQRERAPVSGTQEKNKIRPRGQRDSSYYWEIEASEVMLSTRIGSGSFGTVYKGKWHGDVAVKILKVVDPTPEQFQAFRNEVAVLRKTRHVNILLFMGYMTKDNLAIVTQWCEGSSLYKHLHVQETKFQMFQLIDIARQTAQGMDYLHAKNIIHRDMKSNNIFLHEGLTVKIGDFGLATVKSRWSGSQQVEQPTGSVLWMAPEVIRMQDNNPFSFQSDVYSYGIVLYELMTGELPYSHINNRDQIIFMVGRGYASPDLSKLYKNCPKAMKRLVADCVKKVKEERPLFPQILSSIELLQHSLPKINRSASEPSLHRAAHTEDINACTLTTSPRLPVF
# [3] = test system: human lung (A549) carcinoma cell line; assay: Cell viability assay in A549 cells; assay type: cell-based
# [4] = target: RAF dimerization (BRAF and CRAF) (Homo sapiens, UniProt P04049); assay: RAF dimerization, immunoblot of BRAF and CRAF immunoprecipitates from XPA-1 cells; assay type: cell-based; design: immunoblot analysis of BRAF and CRAF immunoprecipitates from XPA-1 cells; endogenous in cells; host or cells: XPA-1
# Protocol: as §1
# FIG. 14 illustrates immunoblot analysis of BRAF and CRAF immunoprecipitates from XPA-1 cells treated with PD0325901, Sorafenib, L-779450, PLX4720, KG5 or KG1.
# as §2
# [5] = test system: human breast (T47D) carcinoma cell line; assay: Cell viability assay in T47D cells; assay type: cell-based
# [6] = test system: A549 cells; assay: Cell proliferation assay in A549 cells; assay type: cell-based, human
# [7] = target: T1, CRAF; settings: 293H cells overexpressing catC, indicated amounts for 1 h; cited from earlier work
# Target sequence in this assay (P04049 305-648 limits assumed, species assumed): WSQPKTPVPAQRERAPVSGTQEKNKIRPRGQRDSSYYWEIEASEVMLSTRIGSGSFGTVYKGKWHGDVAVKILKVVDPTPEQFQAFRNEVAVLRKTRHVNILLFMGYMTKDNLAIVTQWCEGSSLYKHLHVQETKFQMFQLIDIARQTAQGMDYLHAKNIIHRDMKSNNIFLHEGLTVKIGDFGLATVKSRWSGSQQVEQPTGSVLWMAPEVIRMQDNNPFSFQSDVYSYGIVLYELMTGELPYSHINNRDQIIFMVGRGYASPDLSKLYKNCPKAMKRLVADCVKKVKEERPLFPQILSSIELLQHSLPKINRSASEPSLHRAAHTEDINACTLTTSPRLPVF
# [8] = target: T1, CRAF; assay: CRAF localization to the mitotic spindle, confocal microscopy of XPA-1 cells; assay type: cell-based; design: total CRAF and total MEK of lysates from XPA-1 cells treated with PD0325901, Sorafenib, L-779450, PLX4720, KG5 or KG1; endogenous in cells; host or cells: XPA-1
# Description: FIG. 35. […] Data are representative of three independent experiments. FIG. 35 (b) Confocal microscopy images of human pancreatic XPA-1 and glioblastoma U251 cells during mitosis, stained for phospho-5338 CRAF (in green), α-tubulin (in red) and DNA (TOPRO-3™ in blue). Scale bar, 10 μm. White arrows indicate localization of phospho-S338 CRAF at the mitotic spindle. FIG. 35 (c) Immunoblot analysis of γ-tubulin immunoprecipitates from human colon carcinoma HCT-116 cells asynchronized and synchronized at pro-metaphase. Data are representative of three independent experiments. FIG. 35(d) Immunohistochemical staining of phospho-S338 CRAF in tumor biopsies from breast cancer patients. Scale bar, 10 μm. FIG. 35(e) Confocal microscopy images of XPA-1 cells treated with KG5, sorafenib, ZM336372, L779450 or paclitaxel and stained for CRAF (in green), γ-tubulin (in red) and DNA (TOPRO-3™ in blue). Scale bar, 10 μm. White arrows indicate localization of CRAF at the spindle pole. White circle indicates the absence of CRAF at the spindle pole.
# Cells attached to cover-slips were fixed with cold methanol and permeabilized in PBS containing 0.1% triton for two minutes and blocked for 60 minutes, at room temperature with 2% BSA in PBS. Cells were stained with antibodies to CRAF (Abcam), phospho-serine 338 CRAF (SantaCruz), phospho-serine 338 CRAF (Thermo Scientific), a tubulin (Calbiochem), γ tubulin (Abcam), laminB (SantaCruz), Plk1 (Abcam), phospho-T210 Plk1 (Abcam), or phospho-T288 Aurora A (cell signaling). All primary antibodies were used at 1:100 dilution, for two hours at room temperature. After washing several times with PBS, cells were stained for two hours at room temperature, with secondary antibody specific for mouse, rabbit or goat (Invitrogen), as appropriate, diluted 1:300 and co-incubated with the DNA dye TOPRO-3™ (1:500) (Invitrogen). Samples were mounted in VECTASHIELD™ hard-set mounting media (Vector Laboratories) and imaged on a Nikon ECLIPSE C1™ confocal microscope with a 1.4 NA 60× oil-immersion lens, using minimum pinhole (30 μm). Images were captured using EZ-C1-3.50 imaging software.
# Target sequence in this assay (P04049 whole entry): as the sequence (P04049 whole entry) above
# [9] = test system: XPA-1 cells; assay: Cell cycle analysis, bright field and confocal microscopy of XPA-1 cells; assay type: cell-based, human; settings: XPA-1 cells, 20 hours
# Protocol: FIG. 38. […] FIG. 38(a) Bright field images (scale bar, 20 μm), cell cycle analysis and confocal microscopy images (scale bar, 10 μm, laminB in red and DNA in blue) of XPA-1 cells treated for 20 hours with the allosteric RAF inhibitor KG5, the ATP-competitive inhibitor Sorafenib, the MEK inhibitor PD0325901, the control compound KG1 at 5 μM or paclitaxel at 200 nM. Cells were harvested after 20 hours and the cell cycle stage was determined by flow cytometry and confocal microscopy. White arrows indicate cells arrested at pro-metaphase. Scale bars, 10 μm. FIG. 38(b) Representative confocal microscopy images of untreated XPA-1 tumor cells undergoing mitosis (left image) and XPA-1 cell arrested with KG5 at pro-metaphase (right image). Cells were stained with α-tubulin in red and DNA in blue. Scale bar, 10 μm. FIG. 38(c) XPA-1 cells transfected with a vector control or active MEK were treated with 1 μM KG5 for 20 hours or left untreated and the G2/M population was quantified by flow cytometry. Error bars represent s.d. (n=3); * two tailed p value=0.00063 using a Mann Whitney U test. FIG. 38(d) Immunoblot analysis of XPA-1 cells untreated or treated with 1 μM KG5 for 18 hours. Data are representative of four independent experiments. […] Error bars represent s.d. (n=3); * two tailed p value=0.010 using a Mann Whitney U test. Inset, Immunoblot analysis of HCT-116 cells untreated or treated with 1 μM KG5 for 18 hours.
# FIG. 39. […] FIG. 39 graphically illustrates cell cycle analysis of XPA-1 cells treated with the allosteric RAF inhibitor KG5, the microtubule stabilizer paclitaxel, or the ATP-competitive RAF inhibitors sorafenib, L-779450, GW 5074, and ZM-336372. Cells were harvested after 6, 18, 24, 48 and 72 hours and the percentages of cells in G2/M and SubG1 were determined by flow cytometry. Data are representative of three independent experiments.
# Cell cycle analysis was performed by flow cytometry following propidium iodide staining. Briefly, cells were harvested, fixed with ice cold methanol, treated for 45 min with 10 μg/ml of RNase and resuspended in PBS containing 10 μg/ml of PI, and analyzed by flow cytometry. Cell cycle analysis was performed in cells treated for 18 hours with the allosteric RAF inhibitor KG5, the ATP-competitive RAF inhibitors: sorafenib, L-779450, GW5074, and ZM-336372, the MEK inhibitor (PD0325901) at […] concentration or paclitaxel at 100 nM.
# Sequence of RAF dimerization (BRAF and CRAF) (P04049 whole entry): as above
structure (smiles),measurement,setting,value
CSc1nc(N)cc(Oc2ccc(-c3cnc(Nc4cccc(C(F)(F)F)c4)[nH]3)cc2)n1 [K38-B],cell viability,[1]; MDA-MB-231,decrease cell viability
same,potency relative to KG5 (cell viability EC50s),[1]; MDA-MB-231,more potent than KG5
same,EC50,[1]; MDA-MB-231 breast cancer cell viability assays,approach picomolar (pM) EC50s
same,serine 338 phosphorylation on CRAF,[2],prevent
same,cell viability,[3]; A549,decrease cell viability
same,potency relative to KG5 (cell viability EC50s),[3]; A549,more potent than KG5
same,EC50,[3]; A549 lung cancer cells,approach picomolar (pM) EC50s
same,RAF dimerization,[4],prevent RAF dimerization
same,cell viability,[5]; T47D,decrease cell viability
same,potency relative to KG5 (cell viability EC50s),[5]; T47D,more potent than KG5
same,EC50,[5]; T47D breast cancer cells,approach picomolar (pM) EC50s
CCCS(=O)(=O)Nc1ccc(F)c(C(=O)c2c[nH]c3ncc(Cl)cc23)c1F [PLX4720],cell proliferation,[6],induce proliferation
same,phosphorylation at S338 (pS338-CRAF immunoblot),[7],steadily increased
CC(=O)O[C@H]1C(=O)[C@@]2(C)[C@H]([C@H](OC(=O)c3ccccc3)[C@]3(O)C[C@H](OC(=O)[C@H](O)[C@@H](NC(=O)c4ccccc4)c4ccccc4)C(C)=C1C3(C)C)[C@]1(OC(C)=O)CO[C@@H]1C[C@@H]2O [paclitaxel],CRAF localization to the mitotic spindle,[8],does not affect CRAF localization to the mitotic spindle; also recorded: CRAF remained localized to the mitotic spindle
same,arrest at pro-metaphase (confocal microscopy),[9],arrests cells at pro-metaphase
CCCS(=O)(=O)Nc1ccc(F)c(C(=O)c2c[nH]c3ncc(-c4ccc(Cl)cc4)cc23)c1F [PLX4032],cell proliferation,[6],induce proliferation
CNC(=O)c1cc(Oc2ccc(NC(=O)Nc3ccc(Cl)c(C(F)(F)F)c3)cc2)ccn1 [Sorafenib],CRAF localization to the mitotic spindle,[8],does not prevent CRAF localization to the mitotic spindle or midbodies
same,arrest at pro-metaphase (confocal microscopy),[9],does not arrest cells at pro-metaphase
same,cell proliferation,[6],induce proliferation
